This note sets out measurements from ChEMBL document CHEMBL5230136, “A review: Biologically active 3,4-heterocycle-fused coumarins” (Eur J Med Chem, 2021).

In test [1] the target is Dopamine receptors; D2 & D4 (Homo sapiens, UniProt P14416+P21917). The test is described as follows: Binding affinity to human D2/D4 receptor assessed as inhibition constant. The format is protein assay.
A further test deals with Proteus mirabilis. The test is described as follows: Antibacterial activity against Proteus mirabilis assessed as zone of inhibition. The format is functional.
Test [2] concerns Bacillus cereus. The test is described as follows: Antibacterial activity against Bacillus cereus assessed as zone of inhibition. In kind it is functional.
Test [3] concerns Serratia marcescens. The experiment in a line: Antibacterial activity against Serratia marcescens assessed as zone of inhibition. In kind it is functional.
In test [4] the test system is Staphylococcus aureus. The experiment in a line: Antibacterial activity against Staphylococcus aureus assessed as zone of inhibition. In kind it is functional.
Another test relates to Ehrlich. The experiment in a line: cells. Particulars: Mus musculus.
The next test relates to Penicillium chrysogenum. The experiment in a line: Antifungal activity against Penicillium chrysogenum assessed as zone of inhibition. The format is functional.
The subject of another test is Aspergillus ochraceus. The test is described as follows: Antifungal activity against Aspergillus ochraceus assessed as zone of inhibition. In kind it is functional.
In the next test the test system is Phytophthora. The experiment in a line: Antimicrobial activity against Phytophthora assessed as reduction in microbial growth. The format is functional. Details: concentration or dose not given beside the values.
For a further test, the system named is Botrytis cinerea. The test is described as follows: Antifungal activity against gray mold Botrytis cinerea assessed as reduction in fungal growth. In kind it is functional. Details: concentration or dose not given beside the values.
Another test has as its system Rhizoctonia solani. The test is described as follows: Antifungal activity against Rhizoctonia solani assessed as reduction in fungal growth. In kind it is functional. Further details: concentration or dose not given beside the values.
The subject of a further test is Fusarium verticillioides. The experiment in a line: Antifungal activity against Fusarium verticillioides assessed as reduction in fungal growth. In kind it is functional. Details: concentration or dose not given beside the values.
Test [5] deals with Xanthomonas citri pv. malvacearum. The test is described as follows: Antibacterial activity against Xanthomonas citri pv. malvacearum assessed as reduction in bacterial growth. In kind it is functional. Details: concentration or dose not given beside the values.
The subject of another test is Erysiphe necator. The experiment in a line: Antifungal activity against powdery mildew Erysiphe necator assessed as reduction in fungal growth. In kind it is functional. Further details: concentration or dose not given beside the values.
Test [6] has as its system Serratia marcescens. The experiment in a line: Antibacterial activity against Serratia marcescens assessed as zone of inhibition at 20 mg/ml. As to conditions: read-out: IZ. In kind it is functional.
The test system of the next test is Aspergillus flavus. The experiment in a line: Antifungal activity against Aspergillus flavus assessed as zone of inhibition at 20 mg/ml. As to conditions: read-out: IZ. In kind it is functional.
The next test concerns Scopulariopsis. The test is described as follows: Antifungal activity against Scopulariopsis assessed as zone of inhibition at 20 mg/ml. The format is functional. As to conditions: read-out: IZ.
The test system of another test is Candida albicans. The test is described as follows: Antifungal activity against Candida albicans assessed as zone of inhibition at 20 mg/ml. As to conditions: read-out: IZ. The format is functional.
For a further test, the system named is Micrococcus luteus. The test is described as follows: Antibacterial activity against Micrococcus luteus assessed as zone of inhibition at 20 mg/ml. The format is functional. As to conditions: read-out: IZ.
Test [7] has as its system Staphylococcus aureus. The experiment in a line: Antibacterial activity against Staphylococcus aureus assessed as zone of inhibition at 20 mg/ml. In kind it is functional. As to conditions: read-out: IZ.
The subject of the next test is Fusarium oxysporum. The experiment in a line: Antifungal activity against Fusarium oxysporum assessed as zone of inhibition at 20 mg/ml. In kind it is functional. As to conditions: read-out: IZ.
A further test has as its system Trichophyton rubrum. The experiment in a line: Antifungal activity against Trichophyton rubrum assessed as zone of inhibition at 20 mg/ml. As to conditions: read-out: IZ. The format is functional.
The test system of the next test is Escherichia coli. The test is described as follows: Antibacterial activity against Escherichia coli assessed as zone of inhibition at 20 mg/ml. The format is functional. Particulars: read-out: IZ.
The test system of the next test is Pseudomonas aeruginosa. The experiment in a line: Antibacterial activity against Pseudomonas aeruginosa assessed as zone of inhibition at 20 mg/ml. Particulars: read-out: IZ. The format is functional.
The test system of another test is Geotrichum candidum. The experiment in a line: Antifungal activity against Geotrichum candidum assessed as zone of inhibition at 20 mg/ml. The format is functional. As to conditions: read-out: IZ.
Test [8] deals with Bacillus cereus. The experiment in a line: Antibacterial activity against Bacillus cereus assessed as zone of inhibition at 20 mg/ml. In kind it is functional. Particulars: read-out: IZ.

Description for Ehrlich: Anticancer activity against mouse EAC cells assessed as reduction in cell viability

Consider `COc1ccc2c3c(c(=O)oc2c1)CN(Cc1ccc(Cl)c(Cl)c1)CC3`, for which the inhibition constant (Ki) in test [1] came out at 95 nM.

For `COc1ccc2c3c(c(=O)oc2c1)CN(CCc1ccccc1)CC3`, the inhibition constant Ki in test [1] is listed as 734 nM.

For `COc1ccc2c3c(c(=O)oc2c1)CN(Cc1ccc(F)cc1)CC3`, in test [1], the Ki was found to be 1350 nM.

On to `CC1(C)S[C@@H]2[C@H](NC(=O)[C@H](N)c3ccccc3)C(=O)N2[C@H]1C(=O)O` [AMPICILLIN], for which the “inhibition zone (IZ)” value in the test on Proteus mirabilis turned out to be 27 mm; in the test on Bacillus cereus [2], 25 mm; in the test on Serratia marcescens [3], 26 mm; with Staphylococcus aureus [4] it was 26 mm.

In the case of `O=C1c2ccccc2-c2nc3c(c(-c4ccccc4)c21)c(=O)oc1ccccc13`, the IC50 in the test on Ehrlich amounted to 130 nM.

`CC1c2c(c3ccccc3oc2=O)Oc2ncn3nc(-c4ccccc4)nc3c21` (stereo not drawn): the “inhibition zone (IZ)” value was 19 mm in the test on Proteus mirabilis; 22 mm in the test with Bacillus cereus [2]; 20 mm in the test on Serratia marcescens [3]; 17 mm in the test with Penicillium chrysogenum; 19 mm in the test with Aspergillus ochraceus; 20 mm in the test on Staphylococcus aureus [4].

Turning to `O=c1oc2c(ccc3ccccc32)c2c1C(c1ccccc1)NC(c1ccccc1)C2` (stereo not drawn), the Activity in the test on Phytophthora came out at 83%; in the test on Botrytis cinerea, 32%; in the test on Rhizoctonia solani it was 30%; with Fusarium verticillioides, 18%; in test [5], 9%; in the test on Erysiphe necator it was 68%.

The compound `O=c1oc2ccccc2c2nc3c(c(-c4ccccc4)c12)CCC/C3=C\c1ccccc1` gave a 50% inhibitory concentration (IC50) in the test on Ehrlich of 130 nM.

`CCc1cccc(-n2c(N)c(C#N)c3c(c(=O)oc4ccc5ccccc5c43)c2=O)c1` had an IC50 in the test on Ehrlich of 246000 nM.

Consider `CC(=O)N1C(c2ccccc2)Cc2c(c(=O)oc3cc(C)ccc23)C1c1ccccc1` (stereo not drawn), for which the Activity in the test with Phytophthora is 83%; in the test on Botrytis cinerea, 11%; with Rhizoctonia solani, 0%; in the test on Fusarium verticillioides, 10%; in [5] it was 18%; in the test with Erysiphe necator it was 52%.

Take `CC1C(C#N)=C(N)Oc2c1c(=O)oc1ccccc21` (stereo not drawn): the “inhibition zone (IZ)” value with Proteus mirabilis came out at 20 mm; with Bacillus cereus [2], 19 mm; in the test with Serratia marcescens [3], 18 mm; in the test on Penicillium chrysogenum, 18 mm; with Aspergillus ochraceus, 16 mm; in the test with Staphylococcus aureus [4], 18 mm.

Regarding `CCOC(=O)c1sc2c(c1NC(=O)CN1CCOCC1)c(=O)oc1ccccc12`, the zone of inhibition at 20000 µg/mL in the test with Serratia marcescens [6], in the test on Aspergillus flavus, in the test on Scopulariopsis, with Candida albicans, in the test on Micrococcus luteus and with Staphylococcus aureus [7] was 0 mm in each case. Further, the zone of inhibition at 20000 µg/mL with Fusarium oxysporum is 0 mm; in the test with Trichophyton rubrum it was 0 mm; in the test on Escherichia coli, 0 mm; in the test on Pseudomonas aeruginosa, 9 mm; in the test with Geotrichum candidum it was 0 mm; in the test with Bacillus cereus [8], 0 mm.

On to `COc1ccc(CN2CCc3c(c(=O)oc4cc(OC)ccc34)C2)cc1`, for which the Ki in test [1] was 69 nM.

Turning to `CC1c2c(c3ccccc3oc2=O)Oc2ncn(C)c(=N)c21` (stereo not drawn), the “inhibition zone (IZ)” value with Proteus mirabilis worked out at 19 mm; in the test with Bacillus cereus [2], 17 mm; with Serratia marcescens [3], 19 mm; with Penicillium chrysogenum, 15 mm; in the test on Aspergillus ochraceus it was 19 mm; with Staphylococcus aureus [4], 18 mm.

For the compound `CC1c2c(c3ccccc3oc2=O)Oc2ncn3nc(CCl)nc3c21` (stereo not drawn), the “inhibition zone (IZ)” value in the test with Proteus mirabilis was found to be 20 mm; in the test with Bacillus cereus [2], 22 mm; in the test on Serratia marcescens [3] it was 21 mm; with Penicillium chrysogenum it was 19 mm; in the test with Aspergillus ochraceus, 18 mm; with Staphylococcus aureus [4], 20 mm.

For the compound `O=c1oc2ccccc2c2nc(-c3ccccc3)cc(-c3ccc([N+](=O)[O-])cc3)c12`, the IC50 in the test on Ehrlich is 120 nM.

Consider `Cc1ccc2c3c(c(=O)oc2c1)CN(Cc1ccc(F)cc1)CC3`, for which the Ki in test [1] is 773 nM.

Turning to `CCOC(=O)c1sc2c(c1NC(=O)CNc1ccc(S(=O)(=O)NN=N)cc1)c(=O)oc1ccccc12`, the zone of inhibition at 20000 µg/mL with Serratia marcescens [6] amounted to 0 mm; in the test with Aspergillus flavus, 0 mm; in the test with Scopulariopsis it was 0 mm; in the test with Candida albicans it was 13 mm; with Micrococcus luteus, 0 mm; in the test on Staphylococcus aureus [7] it was 10 mm. Besides, the zone of inhibition at 20000 µg/mL with Fusarium oxysporum was 0 mm; in the test on Trichophyton rubrum, 0 mm; in the test on Escherichia coli, 9 mm; in the test on Pseudomonas aeruginosa, 9 mm; in the test with Geotrichum candidum, 0 mm; in the test on Bacillus cereus [8], 0 mm.

Take `CCOC(=O)c1sc2c(c1NC(=O)CNc1ccc(C)cc1)c(=O)oc1ccccc12`: the zone of inhibition at 20000 µg/mL with Serratia marcescens [6] came to 0 mm; in the test with Aspergillus flavus it was 0 mm; with Scopulariopsis, 0 mm; with Candida albicans, 13 mm; in the test on Micrococcus luteus it was 0 mm; with Staphylococcus aureus [7], 0 mm. Besides, the zone of inhibition at 20000 µg/mL with Fusarium oxysporum came out at 0 mm; in the test on Trichophyton rubrum, 0 mm; in the test with Escherichia coli it was 0 mm; in the test on Pseudomonas aeruginosa it was 0 mm; in the test with Geotrichum candidum it was 8 mm; with Bacillus cereus [8], 0 mm.

`CC1C2=C(N=CNC2N)Oc2c1c(=O)oc1ccccc21` (stereo not drawn): the “inhibition zone (IZ)” value is 19 mm in the test on Proteus mirabilis; 22 mm in the test on Bacillus cereus [2]; 20 mm in the test on Serratia marcescens [3]; 12 mm in the test on Penicillium chrysogenum; 14 mm in the test with Aspergillus ochraceus; 21 mm with Staphylococcus aureus [4].

`O=c1oc2ccccc2c2nc(/C=C/c3ccccc3)cc(-c3ccccc3)c12` displayed a concentration for half-maximal inhibition (IC50) with Ehrlich of 120 nM.

As to `O=c1[nH]cc(F)c(=O)[nH]1` [FLUOROURACIL], in the test on Ehrlich, 380 nM corresponded to half-maximal inhibition (IC50).

As to `COc1ccc2c3c(c(=O)oc2c1)CN(Cc1ccc(Cl)cc1)CC3`, in test [1], the Ki amounted to 667 nM.

For the compound `NNC(=O)c1sc2c(c1N)c(=O)oc1ccccc12`, the zone of inhibition at 20000 µg/mL stood at 11 mm in the test with Serratia marcescens [6]; 10 mm in the test on Aspergillus flavus; 13 mm in the test on Scopulariopsis; 14 mm with Candida albicans; 0 mm in the test with Micrococcus luteus; 10 mm in the test on Staphylococcus aureus [7]. Besides, the zone of inhibition at 20000 µg/mL in the test on Fusarium oxysporum was found to be 16 mm; in the test on Trichophyton rubrum, 0 mm; in the test with Escherichia coli, 0 mm; in the test with Pseudomonas aeruginosa, 10 mm; with Geotrichum candidum it was 13 mm; in the test with Bacillus cereus [8], 0 mm.

Take `COc1ccc2c3c(c(=O)oc2c1)CN(Cc1ccccc1Cl)CC3`: the Ki in test [1] was 171 nM.

Regarding `O=c1oc2ccccc2c2c1C(c1ccc(Cl)cc1)c1c(ncn3nc(CCl)nc13)O2` (stereo not drawn), the “inhibition zone (IZ)” value with Proteus mirabilis came to 22 mm; with Bacillus cereus [2], 22 mm; with Serratia marcescens [3] it was 23 mm; in the test on Penicillium chrysogenum, 19 mm; in the test on Aspergillus ochraceus it was 19 mm; in the test on Staphylococcus aureus [4] it was 23 mm.
